Patent US20220395572A1, “C[…] THERAPY FOR TREATMENT OF DISC DEGENERATIVE DISEASE” (FIGENE, LLC, priority 2019, published 2022)

Assays:
Dermal fibroblasts = experiment: Growth factor production by dermal fibroblasts cultured 48 hours with CBD; type: cell-based; settings: various CBD concentrations, OPTI-MEM with 10% fetal calf serum
Excerpt: In the groupings of three bars, the middle bar at each concentration represents 100,000 fibroblasts co-cultured with CBD at the indicated concentration. The right bar at each concentration represents 200,000 fibroblasts co-cultured with CBD at the indicated concentration. The left bar at each concentration represents 0 fibroblasts co-cultured with CBD at the indicated concentration;
In the groupings of three bars, the middle bar at each concentration represents 100,000 fibroblasts co-cultured with CBD at the indicated concentration. The right bar at each concentration represents 200,000 fibroblasts co-cultured with CBD at the indicated concentration. The left bar at each concentration represents 0 fibroblasts co-cultured with CBD at the indicated concentration.
Dermal fibroblasts were obtained from Allcells, Inc. and cultured for 48 hours in the indicated concentrations of CBD. […] Cultures were performed in OPTI-MEM media with 10% fetal calf serum.

[1] = system: CGRP expression in dorsal root ganglion (DRG) neurons innervating intervertebral discs; settings: cited from earlier work
[2] = system: in vitro formed nucleus pulposus tissues; settings: TNF-alpha 1-5 ng/mL, within 48 hours; cited from earlier work

C=C(C)C1CCC(C)=CC1c1c(O)cc(CCCCC)cc1O (centres unmarked) [CBD, 2-[3-methyl-6-(1-methylethenyl)-2-cyclohexen-1-yl]-5-pentyl-1,3-benzenediol]
IGF-1 production from fibroblasts (Dermal fibroblasts; FIG. 1): augmentation of IGF-1 was observed
EGF-1 production from fibroblasts (Dermal fibroblasts; FIG. 2): augmentation of EGF-1 was observed

etanercept
CGRP expression in DRG neurons innervating injured discs ([1]; direct intradiscal application immediately after disc puncture, rats): suppressed CGRP expression
proportion of CGRP-immunoreactive neurons among FluoroGold-labeled neurons ([1]; rat L4/5 disc puncture, direct intradiscal application, sham 21%±4%, puncture+saline 32%±7%): 23%±4%

TNF-alpha
proteoglycan content of NP tissue relative to original [2]: 25%
